How the values were obtained:
Experiment in all cases: relative viability (nuclei count vs DMSO), 5 days (fraction); higher = more cells survive
[1] = compound: Cc1ccc(C(=O)Nc2cccc(C(F)(F)F)c2)cc1Nc1cncc(C(N)=O)c1 [ALW-II-49-7]
Summary of the method: (§1)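 Cells of lung cancer lines were placed in 1536-well plates and kept overnight at 37 °C. Pinning then delivered five library-drug doses (not always all listed), spaced by √10, onto plates anchored with vehicle, and the cells were left 5 days without changing medium. One step fixed, permeabilised and stained them with Hoechst, and MetaXpress counted nuclei in 4× images. Viability, as a median over plates, is treated-well nuclei divided by vehicle-well nuclei, with acceptance only at control CV below 25% and at least one doubling.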

[2] = compound: C1CC1C(=O)NC2=NNC3=C2C=CC(=C3)C4=CC(=CC=C4)C(=O)NC5CC5 [XMD13-2]
Summary of the method: as §1

[3] = compound: Cc1nc(Nc2ncc(C(=O)Nc3c(C)cccc3Cl)s2)cc(N2CCN(CCO)CC2)n1 [Dasatinib]
Summary of the method: as §1

UMC-11
relative viability ([1]; 0.08 µM): 1.01 | relative viability ([1]; 0.253 µM): 1.02 | relative viability ([1]; 0.8 µM): 0.975 | relative viability ([1]; 2.53 µM): 1.02 | relative viability ([1]; 8 µM): 1.01 | relative viability ([2]; 0.05 µM): 1.12 | relative viability ([2]; 0.1581 µM): 0.945 | relative viability ([2]; 0.5 µM): 0.993 | relative viability ([2]; 1.581 µM): 0.887 | relative viability ([2]; 5 µM): 1.01 | relative viability ([3]; 0.005 µM): 0.916 | relative viability ([3]; 0.01581 µM): 0.801 | relative viability ([3]; 0.05 µM): 0.63 | relative viability ([3]; 0.075 µM, anchor plate): 0.479 | relative viability ([3]; 0.1581 µM): 0.415 | relative viability ([3]; 0.5 µM): 0.37

— the supplement of paper PMC10307832
